Source: patent publication US20060025414A1, “Poly-heterocyclic compounds and their use as metabotropic glutamate receptor antagonists” (AstraZeneca AB, priority 2004, published 2006)

Target: T1, human mGluR5d (Homo sapiens, UniProt P41594)
T1 construct: expressed in transfected cells
Assay: FLIPR assay of [Ca2+]i mobilization (Group I receptor antagonist activity)
Type: cell-based
Conditions: cells expressing human mGluR5d; antagonist block of agonist challenge
Experimental: For FLIPR analysis, cells expressing human mGluR5d as described in WO97/05252 were seeded on collagen coated clear bottom 96-well plates with black sides and analysis of [Ca^2+]i mobilization was done 24 h after seeding.
FLIPR experiments were done using a laser setting of 0.800 W and a 0.4 second CCD camera shutter speed. Each FLIPR experiment was initiated with 160 μl of buffer present in each well of the cell plate. After each addition of the compound, the fluorescence signal was sampled 50 times at 1 second intervals followed by 3 samples at 5 second intervals. Responses were measured as the peak height of the response within the sample period. EC50 and IC50 determinations were made from data obtained from 8-point concentration response curves (CRC) performed in duplicate. Agonist CRC were generated by scaling all responses to the maximal response observed for the plate. […]
FLIPR experiments were done using a laser setting of 0.800 W and a 0.4 second CCD camera shutter speed with excitation and emission wavelengths of 488 nm and 562 nm, respectively. […] After each addition the fluorescence signal was sampled 50 times at 1 second intervals followed by 3 samples at 5 second intervals. Responses were measured as the peak height of the response within the sample period. […]

T1 sequence (P41594 21-942 isoform P41594-3 limits assumed): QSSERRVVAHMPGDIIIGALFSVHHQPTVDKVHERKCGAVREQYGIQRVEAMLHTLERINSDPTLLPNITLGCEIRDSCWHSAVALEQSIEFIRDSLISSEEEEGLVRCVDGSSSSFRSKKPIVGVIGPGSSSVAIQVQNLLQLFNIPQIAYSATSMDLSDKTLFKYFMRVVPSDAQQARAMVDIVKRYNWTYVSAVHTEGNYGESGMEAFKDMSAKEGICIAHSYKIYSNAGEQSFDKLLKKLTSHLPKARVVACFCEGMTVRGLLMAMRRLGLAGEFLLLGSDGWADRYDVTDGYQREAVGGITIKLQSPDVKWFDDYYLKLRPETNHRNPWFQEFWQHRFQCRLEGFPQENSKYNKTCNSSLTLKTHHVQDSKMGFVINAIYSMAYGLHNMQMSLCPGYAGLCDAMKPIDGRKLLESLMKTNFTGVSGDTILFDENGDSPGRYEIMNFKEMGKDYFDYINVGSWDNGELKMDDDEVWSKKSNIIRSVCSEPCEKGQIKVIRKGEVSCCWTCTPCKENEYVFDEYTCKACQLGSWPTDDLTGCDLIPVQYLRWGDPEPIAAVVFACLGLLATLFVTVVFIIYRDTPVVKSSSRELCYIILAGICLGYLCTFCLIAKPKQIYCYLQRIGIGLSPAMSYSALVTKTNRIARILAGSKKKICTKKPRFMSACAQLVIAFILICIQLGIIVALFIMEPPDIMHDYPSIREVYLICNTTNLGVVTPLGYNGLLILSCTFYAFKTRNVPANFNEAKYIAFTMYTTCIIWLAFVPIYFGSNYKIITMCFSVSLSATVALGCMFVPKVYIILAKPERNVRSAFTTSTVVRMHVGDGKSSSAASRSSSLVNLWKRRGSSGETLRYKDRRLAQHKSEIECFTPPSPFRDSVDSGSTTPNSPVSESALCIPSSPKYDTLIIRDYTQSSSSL

Row | IC50 [nM] | SMILES
1 | 40 | Cn1c(-c2ccncc2)nnc1N1CCCCC1c1nnn(-c2cccc(Cl)c2)n1 (centres unmarked) [4-(5-{2-[2-(3-chlorophenyl)-2H-tetrazol-5-yl]piperidin-1-yl}-4-methyl-4H-1,2,4-triazol-3-yl)pyridine]
2 | 199 | Cn1c(-c2ccc(OC(F)F)cc2)nnc1N1CCOCC1c1nc(-c2cccc(Cl)c2)no1 (centres unmarked) [3-[3-(3-Chloro-phenyl)-[1,2,4]oxadiazol-5-yl]-4-[5-(4-difluoromethoxy-phenyl)-4-methyl-4H-[1,2,4]triazol-3-yl]-morpholine]
